Reference: patent US20140228349A1, “5,7-SUBSTITUTED-IMIDAZO[1,2-C]PYRIMIDINES” (Array BioPharma Inc., priority 2011, published 2014)
pIC50: −log10 of the molar value. Each block holds one molecule with its values, some of them ahead of it.

Experiments:
Assay type in all cases: biochemical
[1] = target: T1, JAK2 (Homo sapiens, UniProt O60674); assay: JAK2 Inhibition Assay (Omnia kinase fluorescence peptide substrate); details: averaged IC50 ranges; 25 μM (Km app) or 1 mM ATP, 5 nM JAK2
T1 construct: purchased Invitrogen Corporation, Carlsbad, Calif; IVGN PV4288
T1 sequence (O60674 whole entry): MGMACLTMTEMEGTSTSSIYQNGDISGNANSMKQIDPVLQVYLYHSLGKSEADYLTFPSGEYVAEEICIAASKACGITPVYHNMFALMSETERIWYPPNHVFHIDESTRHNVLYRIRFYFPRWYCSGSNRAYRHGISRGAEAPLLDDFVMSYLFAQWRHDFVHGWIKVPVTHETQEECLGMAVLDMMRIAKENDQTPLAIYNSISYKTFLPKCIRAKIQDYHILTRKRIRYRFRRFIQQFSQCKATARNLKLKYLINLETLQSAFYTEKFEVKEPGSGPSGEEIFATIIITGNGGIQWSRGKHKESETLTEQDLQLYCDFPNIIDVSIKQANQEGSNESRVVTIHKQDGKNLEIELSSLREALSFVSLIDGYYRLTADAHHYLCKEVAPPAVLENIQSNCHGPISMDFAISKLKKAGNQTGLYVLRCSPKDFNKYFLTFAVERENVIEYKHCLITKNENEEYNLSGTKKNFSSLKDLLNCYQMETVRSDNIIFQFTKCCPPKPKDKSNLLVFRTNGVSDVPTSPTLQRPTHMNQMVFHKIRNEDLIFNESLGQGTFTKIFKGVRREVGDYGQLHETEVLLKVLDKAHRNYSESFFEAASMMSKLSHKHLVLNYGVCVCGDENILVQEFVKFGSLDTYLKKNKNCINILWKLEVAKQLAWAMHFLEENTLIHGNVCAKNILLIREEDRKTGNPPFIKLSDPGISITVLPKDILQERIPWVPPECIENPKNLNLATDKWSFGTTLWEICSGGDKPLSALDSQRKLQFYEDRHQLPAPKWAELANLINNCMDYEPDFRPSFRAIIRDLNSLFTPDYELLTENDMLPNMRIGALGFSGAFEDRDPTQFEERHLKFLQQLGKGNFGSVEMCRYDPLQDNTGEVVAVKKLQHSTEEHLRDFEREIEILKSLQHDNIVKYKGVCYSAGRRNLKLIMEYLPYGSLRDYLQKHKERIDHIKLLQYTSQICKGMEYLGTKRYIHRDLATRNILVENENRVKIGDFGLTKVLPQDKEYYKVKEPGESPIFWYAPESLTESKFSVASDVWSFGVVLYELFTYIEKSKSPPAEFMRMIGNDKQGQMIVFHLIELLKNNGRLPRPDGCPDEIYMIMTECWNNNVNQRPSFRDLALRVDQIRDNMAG

[2] = target: T2, JAK3 (Homo sapiens, UniProt P52333); assay: JAK3 Inhibition Assay (Omnia kinase fluorescence peptide substrate); details: averaged IC50 ranges; 10 μM (Km app) or 1 mM ATP, 2.5 nM JAK3
T2 construct: purchased Invitrogen Corporation, Carlsbad, Calif; IVGN PV4080
T2 sequence (P52333 1-1124): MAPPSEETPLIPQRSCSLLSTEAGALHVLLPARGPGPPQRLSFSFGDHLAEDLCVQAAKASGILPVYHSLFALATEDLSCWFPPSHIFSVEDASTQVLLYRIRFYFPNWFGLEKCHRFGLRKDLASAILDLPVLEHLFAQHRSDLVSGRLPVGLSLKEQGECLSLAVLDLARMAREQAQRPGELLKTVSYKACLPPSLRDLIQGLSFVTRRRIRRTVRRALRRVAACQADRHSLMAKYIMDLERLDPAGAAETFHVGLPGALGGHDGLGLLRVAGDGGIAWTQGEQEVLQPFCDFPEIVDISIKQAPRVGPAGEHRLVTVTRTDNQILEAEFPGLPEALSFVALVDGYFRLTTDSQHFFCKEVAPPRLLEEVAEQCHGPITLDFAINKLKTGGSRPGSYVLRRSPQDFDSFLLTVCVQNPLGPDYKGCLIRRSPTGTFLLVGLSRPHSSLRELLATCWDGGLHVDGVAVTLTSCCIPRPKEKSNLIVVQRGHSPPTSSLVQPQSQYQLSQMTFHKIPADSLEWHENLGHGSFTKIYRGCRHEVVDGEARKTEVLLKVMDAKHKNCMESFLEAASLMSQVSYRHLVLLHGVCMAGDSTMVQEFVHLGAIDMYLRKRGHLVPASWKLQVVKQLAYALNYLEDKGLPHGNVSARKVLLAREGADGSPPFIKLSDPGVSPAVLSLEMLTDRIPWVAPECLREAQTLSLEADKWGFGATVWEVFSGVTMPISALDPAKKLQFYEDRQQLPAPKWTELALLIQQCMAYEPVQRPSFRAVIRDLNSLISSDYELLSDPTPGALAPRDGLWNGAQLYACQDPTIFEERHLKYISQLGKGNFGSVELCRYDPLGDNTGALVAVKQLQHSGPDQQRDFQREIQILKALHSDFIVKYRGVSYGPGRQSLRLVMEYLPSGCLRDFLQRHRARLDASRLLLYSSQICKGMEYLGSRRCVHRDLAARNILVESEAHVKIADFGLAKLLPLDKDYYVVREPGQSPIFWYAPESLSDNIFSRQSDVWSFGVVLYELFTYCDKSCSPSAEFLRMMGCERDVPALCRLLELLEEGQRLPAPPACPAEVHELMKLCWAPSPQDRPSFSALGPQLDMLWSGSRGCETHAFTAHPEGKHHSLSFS
Summary of the method: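 IC50 is the concentration giving 50 percent of control on a 4-parameter logistic fit of 10-point, 3-fold dilutions from a 10 μM top dose, at 2% final DMSO. Kinetic Sox fluorescence (360/485 nm) was monitored every 50 s for 45 min. Mix: JAK3 2.5 nM, Omnia Y7 peptide 10 μM, ATP 10 μM (Km app) or 1 mM, in HEPES pH 7.4 buffer with MgCl2, Triton X-100 and DTT.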

[3] = target: T3, Human Tyk2 kinase domain (Homo sapiens, UniProt P29597); assay: Tyk2 Inhibition Assay (Omnia kinase fluorescence peptide substrate); details: averaged IC50 ranges; 10 μM (Km app) or 1 mM ATP, 2 nM Tyk2
T3 construct: comprising amino acids 886 to 1187; His10 (10 histidine residues) (C, cleaved yes); made in house
T3 sequence (P29597 886-1187): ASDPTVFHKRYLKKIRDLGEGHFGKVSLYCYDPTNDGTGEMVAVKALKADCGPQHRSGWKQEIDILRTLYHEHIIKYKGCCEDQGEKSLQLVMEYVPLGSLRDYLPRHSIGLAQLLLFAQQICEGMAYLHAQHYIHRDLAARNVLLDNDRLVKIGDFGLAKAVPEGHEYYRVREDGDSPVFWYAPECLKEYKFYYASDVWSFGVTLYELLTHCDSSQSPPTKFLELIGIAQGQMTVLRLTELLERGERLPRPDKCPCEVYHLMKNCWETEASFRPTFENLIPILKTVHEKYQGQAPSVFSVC
Summary of the method: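 Phosphorylation of 8 μM Omnia Y12 peptide followed kinetically by Sox fluorescence, ex 360/em 485 nm, every 50 s for 45 min. Enzyme: 2 nM Tyk2 kinase domain (aa 886–1187, His tag removed); ATP at 10 μM (Km app) or 1 mM; buffer HEPES pH 7.4 with MgCl2, Triton X-100, DTT. 10-point curves up to 10 μM, IC50 from 4-parameter logistic fit.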

[4] = target: T4, JAK1 (Homo sapiens, UniProt P23458); assay: JAK1 Inhibition Assay (Omnia kinase fluorescence peptide substrate); details: averaged IC50 ranges; 40 μM (Km app) or 1 mM ATP, 15 nM JAK1
T4 construct: purchased Invitrogen Corporation, Carlsbad, Calif; IVGN PV4775
T4 sequence (P23458 whole entry): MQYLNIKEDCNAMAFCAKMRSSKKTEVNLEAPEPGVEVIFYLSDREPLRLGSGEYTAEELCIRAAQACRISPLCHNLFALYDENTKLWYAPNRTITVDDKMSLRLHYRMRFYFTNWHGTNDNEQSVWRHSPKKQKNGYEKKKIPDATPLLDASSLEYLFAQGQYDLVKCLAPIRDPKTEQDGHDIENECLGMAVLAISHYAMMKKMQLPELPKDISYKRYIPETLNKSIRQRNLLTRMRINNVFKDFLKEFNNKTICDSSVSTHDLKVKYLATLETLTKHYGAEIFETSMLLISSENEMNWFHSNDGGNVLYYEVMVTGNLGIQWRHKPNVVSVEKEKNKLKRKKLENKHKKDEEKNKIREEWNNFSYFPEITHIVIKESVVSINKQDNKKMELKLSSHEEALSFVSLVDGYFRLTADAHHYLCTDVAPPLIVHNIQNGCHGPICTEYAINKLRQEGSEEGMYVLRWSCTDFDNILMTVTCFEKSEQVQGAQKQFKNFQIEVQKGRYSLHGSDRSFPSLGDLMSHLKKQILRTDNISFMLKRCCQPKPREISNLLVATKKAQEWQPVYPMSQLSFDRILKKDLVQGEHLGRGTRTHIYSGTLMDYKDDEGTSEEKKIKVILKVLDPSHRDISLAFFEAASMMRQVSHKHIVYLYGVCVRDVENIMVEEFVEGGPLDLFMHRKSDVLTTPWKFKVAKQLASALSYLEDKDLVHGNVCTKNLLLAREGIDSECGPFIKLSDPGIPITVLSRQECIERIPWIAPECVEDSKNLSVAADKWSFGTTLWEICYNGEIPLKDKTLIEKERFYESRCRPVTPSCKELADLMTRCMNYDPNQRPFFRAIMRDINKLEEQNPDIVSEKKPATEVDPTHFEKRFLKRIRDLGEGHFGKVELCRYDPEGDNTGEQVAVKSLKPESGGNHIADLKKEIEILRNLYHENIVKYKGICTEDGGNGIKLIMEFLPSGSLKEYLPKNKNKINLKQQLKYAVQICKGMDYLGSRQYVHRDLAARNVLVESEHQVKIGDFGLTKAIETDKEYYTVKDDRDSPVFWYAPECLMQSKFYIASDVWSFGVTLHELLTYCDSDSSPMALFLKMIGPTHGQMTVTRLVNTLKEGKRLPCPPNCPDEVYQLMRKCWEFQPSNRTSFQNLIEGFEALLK
Summary of the method: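 15 nM JAK1, 8 μM Omnia Y12 peptide, 40 μM (Km app) or 1 mM ATP; 25 mM HEPES pH 7.4, 10 mM MgCl2, 2% DMSO. Fluorescence (ex 360/em 485 nm) read every 50 s over 45 min. IC50 by 4-parameter fit of percent of control, top dose 10 μM.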

SMILES: Cn1cc(-c2cc3nccn3c(-c3cnn(C(CCO)C4CC4(F)F)c3)n2)cn1 (centres unmarked) [Example 35, 3-(2,2-difluorocyclopropyl)-3-(4-(7-(1-methyl-1H-pyrazol-4-yl)imidazo[1,2-c]pyrimidin-5-yl)-1H-pyrazol-1-yl)propan-1-ol]
- pIC50 [1]: < 6.00
- pIC50 [2]: < 6.00
- pIC50 [3]: 6.00 to 7.00
- pIC50 [4]: < 6.00

SMILES: COCCC(C1CCCCC1)n1cc(-c2nc(-c3cnn(C)c3)cc3nccn23)cn1 (centres unmarked) [Example 71, 5-(1-(1-cyclohexyl-3-methoxypropyl)-1H-pyrazol-4-yl)-7-(1-methyl-1H-pyrazol-4-yl)imidazo[1,2-c]pyrimidine]
- pIC50 [1]: < 6.00
- pIC50 [2]: < 6.00
- pIC50 [3]: < 6.00
- pIC50 [4]: < 6.00

SMILES: COCCC1(n2cc(-c3nc(-c4cnn(C)c4)cc4nccn34)cn2)CN(S(=O)(=O)C(F)(F)F)C1 [Example 4, 5-(1-(3-(2-methoxyethyl)-1-((trifluoromethyl)sulfonyl)azetidin-3-yl)-1H-pyrazol-4-yl)-7-(1-methyl-1H-pyrazol-4-yl)imidazo[1,2-c]pyrimidine]
- pIC50 [1]: < 6.00
- pIC50 [2]: < 6.00
- pIC50 [3]: 6.00 to 7.00
- pIC50 [4]: < 6.00

SMILES: COC(=O)CC(c1ccccc1)n1cc(-c2nc(-c3cnn(C)c3)cc3nccn23)cn1 (centres unmarked) [Example 77, methyl 3-(4-(7-(1-methyl-1H-pyrazol-4-yl)imidazo[1,2-c]pyrimidin-5-yl)-1H-pyrazol-1-yl)-3-phenylpropanoate]
- pIC50 [1]: 6.00 to 7.00
- pIC50 [2]: 6.00 to 7.00
- pIC50 [3]: 6.00 to 7.00
- pIC50 [4]: 6.00 to 7.00

SMILES: C/C=C/[C@H](C1CC1)n1cc(-c2nc(-c3cnn(C)c3)cc3nccn23)cn1 [Example 38, (S,E)-5-(1-(1-cyclopropylbut-2-en-1-yl)-1H-pyrazol-4-yl)-7-(1-methyl-1H-pyrazol-4-yl)imidazo[1,2-c]pyrimidine]
- pIC50 [1]: 6.00 to 7.00
- pIC50 [2]: < 6.00
- pIC50 [3]: 6.00 to 7.00
- pIC50 [4]: < 6.00

SMILES: CCOCCC(C1CCC1)n1cc(-c2nc(-c3cnn(C)c3)cc3nccn23)cn1 (centres unmarked) [Example 67, 5-(1-(1-cyclobutyl-3-ethoxypropyl)-1H-pyrazol-4-yl)-7-(1-methyl-1H-pyrazol-4-yl)imidazo[1,2-c]pyrimidine]
- pIC50 [1]: 6.00 to 7.00
- pIC50 [2]: < 6.00
- pIC50 [3]: 6.00 to 7.00
- pIC50 [4]: < 6.00

SMILES: COC(=O)CC(c1ccc(F)cc1)n1cc(-c2nc(-c3cnn(C)c3)cc3nccn23)cn1 (centres unmarked) [Example 80, methyl 3-(4-fluorophenyl)-3-(4-(7-(1-methyl-1H-pyrazol-4-yl)imidazo[1,2-c]pyrimidin-5-yl)-1H-pyrazol-1-yl)propanoate]
- pIC50 [1]: 6.00 to 7.00
- pIC50 [2]: < 6.00
- pIC50 [3]: 6.00 to 7.00
- pIC50 [4]: < 6.00

SMILES: CCC(CCF)n1cc(-c2nc(-c3cnn(C)c3)cc3nccn23)cn1 (centres unmarked) [Example 57, 5-(1-(1-fluoropentan-3-yl)-1H-pyrazol-4-yl)-7-(1-methyl-1H-pyrazol-4-yl)imidazo[1,2-c]pyrimidine]
- pIC50 [1]: 6.00 to 7.00
- pIC50 [2]: 6.00 to 7.00
- pIC50 [3]: 7.00 to 8.00
- pIC50 [4]: 6.00 to 7.00

SMILES: Cn1cc(-c2cc3nccn3c(-c3cnn(C(CCO)C4CCCCC4)c3)n2)cn1 (centres unmarked) [Example 73, 3-cyclohexyl-3-(4-(7-(1-methyl-1H-pyrazol-4-yl)imidazo[1,2-c]pyrimidin-5-yl)-1H-pyrazol-1-yl)propan-1-ol]
- pIC50 [1]: 6.00 to 7.00
- pIC50 [2]: < 6.00
- pIC50 [3]: 6.00 to 7.00
- pIC50 [4]: < 6.00

SMILES: C[C@H](O)C[C@@H](C1CC1)n1cc(-c2nc(-c3cnn(C)c3)cc3nccn23)cn1 [Example 41, (2S,4S)-4-cyclopropyl-4-(4-(7-(1-methyl-1H-pyrazol-4-yl)imidazo[1,2-c]pyrimidin-5-yl)-1H-pyrazol-1-yl)butan-2-ol]
- pIC50 [1]: 6.00 to 7.00
- pIC50 [2]: < 6.00
- pIC50 [3]: 6.00 to 7.00
- pIC50 [4]: < 6.00

Other lines, results leading:

- pIC50 [1]: 7.00 to 8.00
- pIC50 [2]: 7.00 to 8.00
- pIC50 [3]: > 8.00
- pIC50 [4]: 7.00 to 8.00
SMILES: Cn1cc(-c2cc3nccn3c(-c3cnn([C@H](CC=C(F)F)C4CC4)c3)n2)cn1 [Example 49, (R)-5-(1-(1-cyclopropyl-4,4-difluorobut-3-en-1-yl)-1H-pyrazol-4-yl)-7-(1-methyl-1H-pyrazol-4-yl)imidazo[1,2-c]pyrimidine]

- pIC50 [1]: 7.00 to 8.00
- pIC50 [2]: 6.00 to 7.00
- pIC50 [3]: 7.00 to 8.00
- pIC50 [4]: 7.00 to 8.00
SMILES: CCOCCC1(n2cc(-c3nc(-c4cnn(C)c4)cc4nccn34)cn2)CN(S(=O)(=O)C(F)(F)F)C1 [Example 33, 5-(1-(3-(2-ethoxyethyl)-1-((trifluoromethyl)sulfonyl)azetidin-3-yl)-1H-pyrazol-4-yl)-7-(1-methyl-1H-pyrazol-4-yl)imidazo[1,2-c]pyrimidine]

- pIC50 [1]: 7.00 to 8.00
- pIC50 [2]: 6.00 to 7.00
- pIC50 [3]: 7.00 to 8.00
- pIC50 [4]: 6.00 to 7.00
SMILES: Cn1cc(-c2cc3nccn3c(-c3cnn(C(CCCF)C4CC4)c3)n2)cn1 (centres unmarked) [Example 30, 5-(1-(1-cyclopropyl-4-fluorobutyl)-1H-pyrazol-4-yl)-7-(1-methyl-1H-pyrazol-4-yl)imidazo[1,2-c]pyrimidine]

- pIC50 [1]: 7.00 to 8.00
- pIC50 [2]: 6.00 to 7.00
- pIC50 [3]: 7.00 to 8.00
- pIC50 [4]: 6.00 to 7.00
SMILES: CC[C@@H](CCF)n1cc(-c2nc(-c3cnn(C)c3)cc3nccn23)cn1 [Example 43, (S)-5-(1-(1-fluoropentan-3-yl)-1H-pyrazol-4-yl)-7-(1-methyl-1H-pyrazol-4-yl)imidazo[1,2-c]pyrimidine]

- pIC50 [1]: 6.00 to 7.00
- pIC50 [2]: < 6.00
- pIC50 [3]: 6.00 to 7.00
- pIC50 [4]: < 6.00
SMILES: CCn1cc(-c2nc(-c3cnn(C)c3)cc3nccn23)cn1 [Example 5, 5-(1-ethyl-1H-pyrazol-4-yl)-7-(1-methyl-1H-pyrazol-4-yl)imidazo[1,2-c]pyrimidine]

- pIC50 [1]: 7.00 to 8.00
- pIC50 [2]: 7.00 to 8.00
- pIC50 [3]: 7.00 to 8.00
- pIC50 [4]: 7.00 to 8.00
SMILES: CC=CCC1(n2cc(-c3nc(-c4cnn(C)c4)cc4nccn34)cn2)CN(S(=O)(=O)C(F)(F)F)C1 [Example 90, 5-(1-(3-(but-2-en-1-yl)-1-((trifluoromethyl)sulfonyl)azetidin-3-yl)-1H-pyrazol-4-yl)-7-(1-methyl-1H-pyrazol-4-yl)imidazo[1,2-c]pyrimidine]

- pIC50 [1]: > 8.00
- pIC50 [2]: 7.00 to 8.00
- pIC50 [3]: > 8.00
- pIC50 [4]: > 8.00
SMILES: Cn1cc(-c2cc3nccn3c(-c3cnn(C4(CC=C(F)F)CN(S(=O)(=O)C(F)(F)F)C4)c3)n2)cn1 [Example 32, 5-(1-(3-(3,3-difluoroallyl)-1-((trifluoromethyl)sulfonyl)azetidin-3-yl)-1H-pyrazol-4-yl)-7-(1-methyl-1H-pyrazol-4-yl)imidazo[1,2-c]pyrimidine]
